Source: patent US20050203065A1, “Method of treating ischemia reperfusion injury using adenosine receptor antagonists” (priority 2002, published 2005)

Assays:
[1] = system: open-chest, barbital-anesthetized dogs; experiment: Protocol II (preconditioning): four 5-minute occlusion/reperfusion cycles before 60-minute occlusion and 3 hours reperfusion in dogs; type: in vivo, dog
Procedure: Preconditioning was elicited by four 5-minute occlusion/5-minute reperfusion cycles produced 10 minutes before the 60-minute occlusion.

[2] = target: T1, recombinant canine A3 adenosine receptors (Canis lupus familiaris, UniProt Q28309); experiment: Radioligand competition binding, canine A3 receptor (R-PIA), transfected HEK 293 membranes; details: mean ± SEM, n = 3
T1 construct: expressed in transfected cells
T1 sequence (Q28309 1-314): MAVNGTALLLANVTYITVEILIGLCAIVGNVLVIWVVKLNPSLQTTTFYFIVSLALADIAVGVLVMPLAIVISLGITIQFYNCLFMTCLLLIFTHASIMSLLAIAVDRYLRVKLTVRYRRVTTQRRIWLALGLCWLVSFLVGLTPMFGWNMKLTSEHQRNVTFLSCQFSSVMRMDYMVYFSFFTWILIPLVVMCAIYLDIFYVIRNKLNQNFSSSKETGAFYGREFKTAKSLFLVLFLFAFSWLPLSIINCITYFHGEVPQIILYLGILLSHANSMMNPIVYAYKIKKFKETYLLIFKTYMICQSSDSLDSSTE
Procedure: Membranes (40-70 μg membrane protein), radioligands, and varying concentrations of competing ligands were incubated in triplicate in 0.1 ml buffer HE plus 2 units/mL adenosine deaminase for 2.5 hours at 21° C. The radioligands used for competitive binding assays were: [^3H]-8-cyclopentyl-1,3-dipropyxanthine ([^3H]-DPCPX) (NEN, Boston, Mass.) for A1 and A2b adenosine receptors, [^3H]-4-(2-[7-amino-2-(furyl)(1,2,4)triazole(2,3-a)(1,3,5)triazin-5-ylaminoethyly)phenol ([^3H] ZM241385) for A2a adenosine receptors (Tocris, Bristol, UK), and [^125Iodine]-labeled N6-(4-aminobenzyl)-9-(5-(methylcarbonyl)-β-D-ribofuranosyl) adenine ([^125I]-AB-MECA) or [^3H]-R-N^6-phenylisopropyladenosine (H^3R]-R-PIA) for A3 adenosine receptors (both from NEN, Boston, Mass.). Nonspecific binding was measured in the presence of 10 μM 5′N ethylcarboxamidoadenosine (NECA, from RBI-Sigma, Natick, Mass.) for A1 and A2b receptors, or 10 μM xanthine amino congener (XAC, from RBI-Sigma, Natick, Mass.) for A2a receptors. Binding assays were terminated by filtration over Whatman GF/C glass fiber filters using a BRANDEL cell harvester (Gaithersburg, Md.). The-filters were rinsed three times with 3-4 mL ice-cold 10 mM Tris-HCl, pH 7.4 and 5 mM magnesium chloride (MgCl2) at 4° C., and were counted in a Wallac β-counter (Perkin Elmer, Boston, Mass.).

[3] = target: T2, recombinant rat A2b adenosine receptors (Rattus norvegicus, UniProt P29276); experiment: FLIPR calcium functional assay, rat A2b receptor in HEK-293 cells (NECA); type: cell-based; details: HEK293 cells
T2 construct: expressed in transfected cells; host or cells: HEK-293
T2 sequence (P29276 1-332): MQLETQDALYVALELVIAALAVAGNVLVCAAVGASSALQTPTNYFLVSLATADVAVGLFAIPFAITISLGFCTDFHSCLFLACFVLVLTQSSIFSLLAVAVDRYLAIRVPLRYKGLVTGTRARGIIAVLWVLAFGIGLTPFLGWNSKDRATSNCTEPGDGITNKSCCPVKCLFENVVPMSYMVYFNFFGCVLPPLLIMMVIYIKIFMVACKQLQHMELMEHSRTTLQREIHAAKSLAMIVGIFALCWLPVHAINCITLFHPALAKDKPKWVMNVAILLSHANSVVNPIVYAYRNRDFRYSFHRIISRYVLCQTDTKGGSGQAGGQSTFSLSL
Procedure: FIG. 10 depicts FLIPR assay of BG9928 with recombinant […] A2b adenosine receptors stably expressed in HEK-293 cells. FLIPR assays measuring the fraction of control response observed with 10, 100, and 300 nM BG9928 in HEK-293 cells expressing rat A2b adenosine receptors in the presence of increasing concentrations of the agonist (NECA) (top graph). The bottom graph is a Schild analysis of the data presented in the top graph.
Cells were seeded into 96-well tissue culture plates with black walls and clear bottoms, and cultured to an […] confluent monolayer. Without removing the media, an equal volume of dye (from calcium assay kit purchased from Molecular Devices) was added. Cell plates were incubated for 1 hour at 37° C. and were then transferred to the-FLIPR unit (Molecular Devices). […]
The FLIPR integrates an argon laser excitation source, a 96-well pipettor, and a detection system utilizing a CCD (Charged Coupled Device) imaging camera. Fluorescence emissions from the 96 wells were monitored simultaneously at excitation and emission wavelength of 488 and 520 nm, respectively. Fluorescence data were collected at 0.1-sec intervals before and after simultaneous rapid addition of compounds to the 96-well plate. Results were read as relative fluorescence units (RFU). […]

[4] = system: open-chest, barbital-anesthetized dogs; experiment: Protocol I (pretreatment): 60 minutes of coronary artery occlusion and 3 hours of reperfusion in dogs
Procedure: The studies were performed in open-chest, barbital-anesthetized dogs instrumented to measure heart rate, blood pressure, left ventricular pressure, and regional myocardial blood flow (radioactive microspheres). A mechanical occluder was placed around a proximal portion of the left anterior descending coronary artery to produce ischemia and reperfusion. At the end of the experiments, infarct size was determined-by histochemical staining (patent blue dye and triphenyltetrazolium) and expressed as a percentage of the region at risk or as a percentage of the entire left ventricle.
In the pretreatment protocol (see FIG. 1, protocol I), the dogs were subjected to 60 minutes of coronary artery occlusion and 3 hours or reperfusion after which the hearts were removed and infarct size was assessed. […] All of the antagonists were administered at a dose of 1 mg/kg as an i.v. bolus followed by and infusion of 10 μg/kg/min continued until immediately before reperfusion (70 minutes total).

SMILES: CCCn1c(=O)c2[nH]c(C34CCC(CCC(=O)O)(CC3)CC4)nc2n(CCC)c1=O [BG 9928, 3-[4-(2,6-dioxo-1,3-dipropyl-2,3,6,7-tetrahydro-1H-purin-8-yl)-bicyclo[2.2.2]oct-1-yl]-propionic acid]
- Addition to the protective effect of ischemic preconditioning ([1]; Protocol II): added to the protective effect
- Relationship between infarct size and collateral blood flow compared to preconditioned control ([1]; Protocol II (preconditioning)): shifted downward further
- Effect on the protective effects of ischemic preconditioning ([1]; Protocol II, 1 mg/kg i.v. bolus + 10 μg/kg/min): did not block
- Ki [2]: 37.7 µM
- pA2 ([3]; rat A2b, Schild analysis): 6.59
- Kb ([3]; rat, null methodology): 0.257 µM
- Relationship between infarct size and transmural collateral blood flow compared to control group [4]: shifted downward
- Infarct size (percentage of risk region or of left ventricle) compared with control, in words ([4]; 1 mg/kg i.v. bolus + 10 μg/kg/min from 10 minutes before occlusion, 1 mg/kg): significantly smaller
- Infarct size reduction ([4]; 1 mg/kg i.v. bolus + 10 μg/kg/min from 10 minutes before occlusion, vs control): 49%
